Experimental data reported in patent publication US20040102423A1, “Spironolactone and angiotensin II antagonist combination therapy for treatment of congestive heart failure” (G.D. Searle & Co., priority 1995, published 2004).
pIC50: −log10 of the molar value.

What was measured:
[1] = molecular target: angiotensin II AT1 receptor; experiment: Assay A: Angiotensin II binding activity, rat uterine membrane preparation, 125I-AII displacement
rabbit aortic rings = experiment: Assay B: In vitro vascular smooth muscle response for AII (antagonist activity, pA2); format: cell-based; conditions: Oryctolagus cuniculus, two values in a cell = two determinations
Method: Assay B: In Vitro Vascular Smooth Muscle-Response for AII
The compounds of the invention were tested for antagonist activity in rabbit aortic rings. Male New Zealand white rabbits (2-2.5 kg) were sacrificed using an overdose of pentobarbital and exsanguinated via the carotid arteries. The thoracic aorta was removed, cleaned of adherent fat and connective tissue and then cut into 3-mm ring segments. The endothelium was removed from the rings by gently sliding a rolled-up piece of filter paper into the vessel lumen. The rings were then mounted in a water-jacketed tissue bath, maintained at 37° C., between moveable and fixed ends of a stainless steel wire with the moveable end attached to an FT03 Grass transducer coupled to a Model 7D Grass Polygraph for recording isometric force responses. The bath was filled with 20 ml of oxygenated (95% oxygen/5% carbon dioxide) Krebs solution of the following composition (mM): 130 NaCl, 15 NaHCO3, […], 1.2 NaH2PO4, 1.2 MgSO4, 2.5 CaCl2, and 11.4 glucose. The preparations were equilibrated for one hour before approximately one gram of passive tension was placed on the rings. Angiotensin II concentration-response curves were then recorded (3×10^−10 to 1×10^−5 M). Each concentration of AII was allowed to elicit its maximal contraction, and then AII was washed out repeatedly for 30 minutes before rechallenging with a higher concentration of AII. Aorta rings were exposed to the test antagonist at 10^−5 M for 5 minutes before challenging with AII. Adjacent segments of the same aorta ring were used for all concentration-response curves in the presence or absence of the test antagonist. The effectiveness of the test compound was expressed in terms of pA2 values and were calculated according to H. O. Schild [Br. J. Pharmacol. Chemother., 2, 189-206 (1947)]. The pA2 value is […] which increases the EC50 value for AII by a factor of two. Each test antagonist was evaluated in aorta rings from two rabbits.

Q: How did the pIC50 [1] turn out when `CCCCCCCCc1nc(CCCC)nn1Cc1ccc(-c2ccccc2-c2nnn[nH]2)cc1` [Compound 39] was run?
A: 8.00

Q: And the Kb (rabbit aortic rings)?
A: 13.2 nM

Q: `CCCCc1nn(C(CC(=O)OCC)C(=O)c2ccccc2)c(=O)n1Cc1ccc(-c2ccccc2-c2nn[nH]n2)cc1` (stereo not drawn) [Compound 112] was tested. Which pIC50 [1] did it give?
A: 5.70

Q: What about the Kb (rabbit aortic rings) of the same compound?
A: 6310 nM

Q: What does the source list for `CCCCc1nc(CCCC)n(Cc2ccc(-c3ccccc3-c3nnn[nH]3)cc2)n1` [Compound 14]?
A: pIC50 [1]: 8.14; Kb (rabbit aortic rings): 1.45 nM

Q: With `CCCCc1nn(CC(=O)C23CC4CC(CC(C4)C2)C3)c(=O)n1Cc1ccc(-c2ccccc2-c2nn[nH]n2)cc1` [Compound 91] as the compound, how does the pIC50 [1] read?
A: 7.52

Q: What about the Kb (rabbit aortic rings) of the same compound?
A: 2.51 nM

Q: `CCCCn1nc(C(F)F)nc1Cc1ccc(-c2ccccc2-c2nnn[nH]2)nc1` [Compound 174] was tested. Which pIC50 [1] did it give?
A: 6.74

Q: And the Kb (rabbit aortic rings)?
A: 51.3 nM

Q: With `CCCCc1cn(CCc2cccs2)c(=O)n1Cc1ccc(-c2ccccc2-c2nnn[nH]2)cc1` [Compound 145] as the compound, how does the pIC50 [1] read?
A: 9.32

Q: And the Kb (rabbit aortic rings)?
A: 200 nM

Q: With `CCCCc1nc(CNC(=O)OC(C)(C)C)n(Cc2ccc(-c3ccccc3-c3nnn[nH]3)cc2)n1` [Compound 45] as the compound, how does the pIC50 [1] read?
A: 8.36

Q: And the Kb (rabbit aortic rings)?
A: 3.89 nM

Q: With `CCCCc1nc(CCc2ccccc2)n(Cc2ccc(-c3ccccc3-c3nnn[nH]3)cc2)n1` [Compound 36] as the compound, how does the pIC50 [1] read?
A: 5.85

Q: And the Kb (rabbit aortic rings)?
A: 1200 nM

Q: What does the source list for `CCCCc1nn(Cc2ccc3ccccc3c2)c(=O)n1Cc1ccc(-c2ccccc2-c2nn[nH]n2)cc1` [Compound 110]?
A: pIC50 [1]: 6.23; Kb (rabbit aortic rings): 398 nM

Q: `CCCCc1cn(-c2c(C)cccc2C)c(=O)n1Cc1ccc(-c2ccccc2-c2nnn[nH]2)nc1` [Compound 233] was tested. Which pIC50 [1] did it give?
A: 7.08

Q: And the Kb (rabbit aortic rings)?
A: 3.09 nM

Q: With `CCCCCc1nc(CCCCC)n(Cc2ccc(-c3ccccc3-c3nnn[nH]3)cc2)n1` [Compound 24] as the compound, how does the pIC50 [1] read?
A: 8.00

Q: And the Kb (rabbit aortic rings)?
A: 27.5 nM

Q: `CCCc1nc(CCC)n(Cc2ccc(-c3ccccc3-c3nnn[nH]3)nc2)n1` [Compound 257] was tested. Which pIC50 [1] did it give?
A: 6.80

Q: And the Kb (rabbit aortic rings)?
A: 234 nM

Q: What does the source list for `CCCCc1nc(Cc2ccc(-c3ccccc3-c3nnn[nH]3)nc2)n(CC(CC)CC)n1` [Compound 168]?
A: pIC50 [1]: 6.38; Kb (rabbit aortic rings): 20.4 nM

Q: Which results are given for `CCCCc1nc(CC(OCC)OCC)nn1Cc1ccc(-c2ccccc2-c2nnn[nH]2)cc1` [Compound 49]?
A: pIC50 [1]: 6.92; Kb (rabbit aortic rings): 87.1 nM

Q: How did the pIC50 [1] turn out when `CCCCc1nn(CC(=O)O)c(=O)n1Cc1ccc(-c2ccccc2-c2nn[nH]n2)cc1` [Compound 98] was run?
A: 7.66

Q: And the Kb (rabbit aortic rings)?
A: 7.94 nM

Q: `CCCCc1nn(CC(=O)OC(C)(C)C)c(=O)n1Cc1ccc(-c2ccccc2-c2nn[nH]n2)cc1` [Compound 95] was tested. Which pIC50 [1] did it give?
A: 7.18

Q: What about the Kb (rabbit aortic rings) of the same compound?
A: 6.31 nM

Q: `CCCCc1nc(C(F)(F)CCC)nn1Cc1ccc(-c2ccccc2-c2nnn[nH]2)nc1` [Compound 258] was tested. Which pIC50 [1] did it give?
A: 6.46

Q: What about the Kb (rabbit aortic rings) of the same compound?
A: 145 nM

Q: How did the pIC50 [1] turn out when `CCCCc1nn(/C(Cc2ccccc2)=C(/OCc2ccccc2)c2ccccc2)c(=O)n1Cc1ccc(-c2ccccc2-c2nn[nH]n2)cc1` [Compound 104] was run?
A: 7.82

Q: And the Kb (rabbit aortic rings)?
A: 10 nM

Q: How did the pIC50 [1] turn out when `CCCCc1nc(CCCNC(=O)OC(C)(C)C)nn1Cc1ccc(-c2ccccc2-c2nnn[nH]2)cc1` [Compound 79] was run?
A: 8.31

Q: What about the Kb (rabbit aortic rings) of the same compound?
A: 0.631 nM

Q: `CCCCn1nc(C(C#N)CCC)n(Cc2ccc(-c3ccccc3-c3nn[nH]n3)cc2)c1=O` (stereo not drawn) [Compound 117] was tested. Which pIC50 [1] did it give?
A: 6.77

Q: And the Kb (rabbit aortic rings)?
A: 316 nM

Q: Which results are given for `CCCCc1nc(Cc2ccc(-c3ccccc3-c3nnn[nH]3)cc2)nn1CCCC` [Compound 140]?
A: pIC50 [1]: 10.51; Kb (rabbit aortic rings): 7.94 nM

Q: What does the source list for `CCCCc1nc(CCC)nn1Cc1ccc(-c2ccccc2-c2nnn[nH]2)cc1` [Compound 25]?
A: pIC50 [1]: 6.32; Kb (rabbit aortic rings): 158 nM

Q: Which results are given for `CCCCc1nc(CN)n(Cc2ccc(-c3ccccc3-c3nnn[nH]3)cc2)n1` [Compound 47]?
A: pIC50 [1]: 7.68; Kb (rabbit aortic rings): 14.1 nM

Q: What does the source list for `CCCCc1nn(CC(=O)OCC)c(=O)n1Cc1ccc(-c2ccccc2-c2nn[nH]n2)cc1` [Compound 97]?
A: pIC50 [1]: 6.55; Kb (rabbit aortic rings): 20 nM

Q: How did the pIC50 [1] turn out when `CCCCc1nc(Cl)nn1Cc1ccc(-c2ccccc2C(=O)O)cc1` [Compound 17] was run?
A: 8.40

Q: And the Kb (rabbit aortic rings)?
A: 2.29 nM

Q: How did the pIC50 [1] turn out when `CCCCc1nn(C(=O)CCC)c(=O)n1Cc1ccc(-c2ccccc2-c2nn[nH]n2)cc1` [Compound 106] was run?
A: 7.32

Q: And the Kb (rabbit aortic rings)?
A: 20 nM

Q: `CCCCc1nc(C(F)(F)CCC)n(Cc2ccc(-c3ccccc3-c3nnn[nH]3)cc2)n1` [Compound 22] was tested. Which pIC50 [1] did it give?
A: 6.34

Q: What about the Kb (rabbit aortic rings) of the same compound?
A: 251 nM

Q: What does the source list for `CCCCc1nc(CC(CC)CC)nn1Cc1ccc(-c2ccccc2-c2nnn[nH]2)nc1` [Compound 262]?
A: pIC50 [1]: 6.28; Kb (rabbit aortic rings): 603 nM

Q: `CCCCc1cn(CCCC)c(=O)n1Cc1ccc(-c2ccccc2-c2nnn[nH]2)cc1` [Compound 143] was tested. Which pIC50 [1] did it give?
A: 10.28

Q: What about the Kb (rabbit aortic rings) of the same compound?
A: 20 nM

Q: Which results are given for `CCCCc1nc(C(=O)O)nn1Cc1ccc(-c2ccccc2-c2nnn[nH]2)cc1` [Compound 63]?
A: pIC50 [1]: 7.21; Kb (rabbit aortic rings): 17 nM

Q: Which results are given for `CCCCn1nc(C(F)(F)CC)nc1Cc1ccc(-c2ccccc2-c2nnn[nH]2)nc1` [Compound 179]?
A: pIC50 [1]: 6.51; Kb (rabbit aortic rings): 214 nM

Q: Which results are given for `CCCCc1nc(CC)nn1Cc1ccc(-c2ccccc2C(=O)O)cc1` [Compound 86]?
A: pIC50 [1]: 8.05; Kb (rabbit aortic rings): 15.8 nM

Q: With `CCCCc1nn(CCC(C)CC(C)(C)C)c(=O)n1Cc1ccc(-c2ccccc2-c2nn[nH]n2)cc1` (stereo not drawn) [Compound 103] as the compound, how does the pIC50 [1] read?
A: 7.92

Q: What about the Kb (rabbit aortic rings) of the same compound?
A: 10 nM

Q: Which results are given for `CCCCc1cn(-c2ccccc2Cl)c(=O)n1Cc1ccc(-c2ccccc2-c2nnn[nH]2)nc1` [Compound 227]?
A: pIC50 [1]: 7.05; Kb (rabbit aortic rings): 28.2 nM

Q: How did the pIC50 [1] turn out when `CCCCc1nc(C2CCCCC2)n(Cc2ccc(-c3ccccc3-c3nnn[nH]3)cc2)n1` [Compound 76] was run?
A: 5.27

Q: And the Kb (rabbit aortic rings)?
A: 3020 nM

Q: With `CCCCc1nc(CCC2CCCCC2)n(Cc2ccc(-c3ccccc3-c3nnn[nH]3)cc2)n1` [Compound 53] as the compound, how does the pIC50 [1] read?
A: 7.19

Q: What about the Kb (rabbit aortic rings) of the same compound?
A: 27.5 nM

Q: With `CCCCc1nn(CC(=O)c2cc(OC)ccc2OC)c(=O)n1Cc1ccc(-c2ccccc2-c2nn[nH]n2)cc1` [Compound 107] as the compound, how does the pIC50 [1] read?
A: 6.74

Q: And the Kb (rabbit aortic rings)?
A: 5.01 nM

Q: What does the source list for `CCCCc1nc(CCC2CCCCC2)nn1Cc1ccc(-c2ccccc2-c2nnn[nH]2)cc1` [Compound 54]?
A: pIC50 [1]: 5.51; Kb (rabbit aortic rings): 955 nM

Q: Which results are given for `CCCCc1nc(-c2ccccc2OC)n(Cc2ccc(-c3ccccc3-c3nnn[nH]3)nc2)n1` [Compound 277]?
A: pIC50 [1]: 6.72; Kb (rabbit aortic rings): 288 nM

Q: Which results are given for `CCCCc1nc(CCCC)n(Cc2ccc(-c3ccccc3C(=O)OC)cc2)n1` [Compound 12]?
A: pIC50 [1]: 8.22; Kb (rabbit aortic rings): 2.19 nM

Q: How did the pIC50 [1] turn out when `CCCCn1nc(C(=O)NC(C)(C)C)nc1Cc1ccc(-c2ccccc2-c2nnn[nH]2)nc1` [Compound 184] was run?
A: 5.96

Q: What about the Kb (rabbit aortic rings) of the same compound?
A: 166 nM

Q: With `CCCCc1nc(Cc2ccc(-c3ccccc3C(=O)O)cc2)n(CCCC)n1` [Compound 137] as the compound, how does the pIC50 [1] read?
A: 6.66

Q: And the Kb (rabbit aortic rings)?
A: 5.01 nM

Q: With `CCCCCc1nc(Cc2ccc(-c3ccccc3-c3nnn[nH]3)nc2)n(CCCC)n1` [Compound 167] as the compound, how does the pIC50 [1] read?
A: 6.43

Q: What about the Kb (rabbit aortic rings) of the same compound?
A: 83.2 nM

Q: How did the pIC50 [1] turn out when `CCCCc1nc(CCCNC(=O)OC(C)(C)C)n(Cc2ccc(-c3ccccc3-c3nnn[nH]3)cc2)n1` [Compound 78] was run?
A: 7.00

Q: And the Kb (rabbit aortic rings)?
A: 100 nM

Q: `CCCCc1nc(C)n(Cc2ccc(-c3ccccc3C(=O)O)cc2)n1` [Compound 88] was tested. Which pIC50 [1] did it give?
A: 7.30

Q: What about the Kb (rabbit aortic rings) of the same compound?
A: 20 nM

Q: With `CCCCc1nc(C2CCCCC2)nn1Cc1ccc(-c2ccccc2-c2nnn[nH]2)cc1` [Compound 77] as the compound, how does the pIC50 [1] read?
A: 4.82

Q: What about the Kb (rabbit aortic rings) of the same compound?
A: 1700 nM

Q: `CCCCc1nc(Cc2ccc(-c3ccccc3-c3nnn[nH]3)cc2)n(CCCC)n1` [Compound 139] was tested. Which pIC50 [1] did it give?
A: 9.57

Q: What about the Kb (rabbit aortic rings) of the same compound?
A: 501 nM

Q: How did the pIC50 [1] turn out when `CCCCc1nc(CCCC)n(Cc2ccc(-c3ccccc3C(=O)NNS(=O)(=O)C(F)(F)F)cc2)n1` [Compound 16] was run?
A: 8.19

Q: What about the Kb (rabbit aortic rings) of the same compound?
A: 1.12 nM
